Results: patent US20050215543A1, “Methods of treating HIV infection” (priority 2004, published 2005)

Legend:
HIV-1 LAI [1] = test: Drug susceptibility assay, MT-2 cells infected with HIV-1 LAI, MTS assay readout (samples involving non-nucleoside RT inhibitors); type: cell-based; details: for EC50: Human immunodeficiency virus 1, MT2, 120 h, single drug, MT-2 cells, HIV-1 LAI, MOI 0.005, 5 days, MTS assay (non-nucleoside RT inhibitors); for Combination Indices at % HIV Inhibition (Confidence Interval) 50%: 50% HIV inhibition; for Combination Indices at % HIV Inhibition (Confidence Interval) 50% / Combination Indices at % HIV Inhibition (Confidence Interval) 75% / Combination Indices at % HIV Inhibition (Confidence Interval) 90%: MTS readout, 95% CI in parenthesis; for Combination Indices at % HIV Inhibition (Confidence Interval) 75%: 75% HIV inhibition; for Combination Indices at % HIV Inhibition (Confidence Interval) 90%: 90% HIV inhibition; for Overall Result: two-drug combination with Compound 1, all ratios and effect levels, MT-2/HIV-1 LAI, MTS assay
Experimental: (§1) Virus and cell lines. The T-cell lines, MT-2 and PM-1 were obtained through the AIDS Research and Reference Reagent Program, NIAID, and were contributed by Dr. D. Richman and Dr. R. Gallo, respectively. Both cell lines were cultured in RPMI 1640 medium supplemented with 10% fetal bovine serum, 2 mM L-glutamine and sub-cultured twice a week. The LAI strain of HIV-1 was obtained from the Fred Hutchinson Cancer Research Center, and the Bal strain was from NIH. Both virus stocks were amplified and titered in MT-2 cells (LAI) and PM-1 cells (Bal) using a virus infectivity assay.
(§2) Drug Susceptibility and Cytotoxicity Assays. For drug susceptibility assays, MT-2 cells were infected with HIV-1 LAI (or PM-1 cells with HIV-1 Bal) at an MOI of 0.005, and seeded into 96-well microtiter plates (0.1×10^6 cells/ml) containing serial dilutions of test compounds. […] Each drug ratio consisted of an array of 3-fold serial dilutions, and was performed in quadruplicate. The plates were incubated at 37° C./5% CO2. The MT-2 cells infected with HIV-1 LAI were incubated for 5 days. On day-five post-infection, 20 μl from each well was harvested and quantitated by a reverse transcriptase (RT) assay, or in samples involving non-nucleoside RT inhibitors, an MTS assay. The PM-1 cells infected with HIV-1 Bal and used for studying the combinations with CCR5 inhibitors were incubated for six days. On day-six post-infection, 20 μl from each well was harvested, 20- and 50-fold diluted and quantitated by p24 assay. Cytotoxicity assays were performed using uninfected cells, exposed to the same drug combinations, and incubated for six days. Cell viability was determined by an XTT assay. The CC50 values were calculated by using the exponential form of the median effect equation as mentioned below for calculation of EC50.
(§3) Analysis of Drug Combination Effects. For determination of CI values, drugs were diluted in a fixed ratio and multiple ratios were analyzed. The drug serial dilutions spanned a range of concentrations near the EC50 value of each compound, so that equivalent antiviral activities could be compared. Concentration-response curves were estimated for each individual drug and every combination using the median-effect equation. The equation was fit using a nonlinear regression routine (Proc Nlin) in PC SAS version 8.01 (SAS Institute Inc., SAS Version 8.01, Cary, N.C.: SAS Institute Inc., 1990).
(§4) In this equation, Fa stands for “fraction affected,” and represents the fraction of the viral load that has been inactivated. […] ED50 is drug concentration that is expected to reduce the amount of virus by 50%, and m is a parameter that reflects the slope of the concentration-response curve.
(§5) To assess antiviral effects of different drug combination treatments, combination indices (CIs) were calculated according to Chou and Rideout. The combination index was computed as CI=[D]1/[Dm]1+[D]2/[Dm]2
(§6) In this equation [Dm]1 and [Dm]2 are the concentrations of drugs that would individually produce a specific level of effect, while [D]1 and [D]2 are the concentrations of drugs in combination that would produce the same level of effect.
(§7) Theoretically, additivity is implied if the CI is equal to one, synergy if the CI is less than one, and antagonism if the CI is greater than one. […] At best, we can construct a range that contains the likely values for the CI, given the noise in the data. In this report, these ranges are reported in parentheses next to each point estimate of the CI. […] If the range fell entirely above 1.0, we would infer antagonistic behavior. If the range were to include 1.0, we would infer additivity.
(§8) In carrying out the combination experiments below, the EC50 for Compound 1 and each comparator compound was determined during the course of each study, and used in the subsequent data analysis.

HIV-1 LAI [2] = test: microbe, parasite or virus in culture; details: for EC50: Human immunodeficiency virus 1, MT2, 120 h; for Combination Indices at % HIV Inhibition (Confidence Interval) 50%: 50% HIV inhibition; for Combination Indices at % HIV Inhibition (Confidence Interval) 50% / Combination Indices at % HIV Inhibition (Confidence Interval) 75% / Combination Indices at % HIV Inhibition (Confidence Interval) 90%: 95% CI in parenthesis; for Combination Indices at % HIV Inhibition (Confidence Interval) 75%: 75% HIV inhibition; for Combination Indices at % HIV Inhibition (Confidence Interval) 90%: 90% HIV inhibition; for Overall Result: two-drug combination with Compound 1, all ratios and effect levels, MT-2/HIV-1 LAI, RT assay
Experimental: as §1, §2, §3, §4, §5, §6, §7, §8

[3] = combination with Compound 1, EC50 ratio 1:1
[4] = combination with Compound 1, EC50 ratio 1:2.5
[5] = combination with Compound 1, EC50 ratio 2.5:1
[6] = combination with Compound 1, EC50 ratio 1:1 (Compound 1:comparator)

Compound | EC50 (HIV-1 LAI [1]) [nM] | Combination Indices at % HIV Inhibition (Confidence Interval) 50% (HIV-1 LAI [1]; [3]) | Combination Indices at % HIV Inhibition (Confidence Interval) 75% (HIV-1 LAI [1]; [3]) | Combination Indices at % HIV Inhibition (Confidence Interval) 90% (HIV-1 LAI [1]; [3]) | Combination Indices at % HIV Inhibition (Confidence Interval) 50% (HIV-1 LAI [1]; [4]) | Combination Indices at % HIV Inhibition (Confidence Interval) 75% (HIV-1 LAI [1]; [4]) | Combination Indices at % HIV Inhibition (Confidence Interval) 90% (HIV-1 LAI [1]; [4]) | Combination Indices at % HIV Inhibition (Confidence Interval) 50% (HIV-1 LAI [1]; [5]) | Combination Indices at % HIV Inhibition (Confidence Interval) 75% (HIV-1 LAI [1]; [5]) | Combination Indices at % HIV Inhibition (Confidence Interval) 90% (HIV-1 LAI [1]; [5]) | Overall Result (HIV-1 LAI [1]) | EC50 (HIV-1 LAI [2]) [nM] | Combination Indices at % HIV Inhibition (Confidence Interval) 50% (HIV-1 LAI [2]; [6]) | Combination Indices at % HIV Inhibition (Confidence Interval) 75% (HIV-1 LAI [2]; [3]) | Combination Indices at % HIV Inhibition (Confidence Interval) 90% (HIV-1 LAI [2]; [3]) | Combination Indices at % HIV Inhibition (Confidence Interval) 50% (HIV-1 LAI [2]; [4]) | Combination Indices at % HIV Inhibition (Confidence Interval) 75% (HIV-1 LAI [2]; [4]) | Combination Indices at % HIV Inhibition (Confidence Interval) 90% (HIV-1 LAI [2]; [4]) | Combination Indices at % HIV Inhibition (Confidence Interval) 50% (HIV-1 LAI [2]; [5]) | Combination Indices at % HIV Inhibition (Confidence Interval) 75% (HIV-1 LAI [2]; [5]) | also measured
CC(C)Nc1cccnc1N1CCN(C(=O)c2cc3cc(NS(C)(=O)=O)ccc3[nH]2)CC1 [Delavirdine, delavirdine] | 1.6 | 0.11 (0.00, 0.26) | 0.09 (0.02, 0.15) | 0.09 (0.00, 0.21) | 0.32 (0.20, 0.43) | 0.09 (0.08, 0.10) | 0.03 (0.02, 0.03) | 0.28 (0.22, 0.35) | 0.17 (0.14, 0.20) | 0.16 (0.11, 0.35) | Synergistic | – | – | – | – | – | – | – | – | – | Overall Result (HIV-1 LAI [1]; listed as delavirdine): strong synergistic effects
O=C1Nc2ccc(Cl)cc2[C@@](C#CC2CC2)(C(F)(F)F)O1 [Efavirenz, efavirenz] | 0.06 | 0.71 (0.50, 0.91) | 0.64 (0.38, 0.90) | 0.64 (0.22, 1.06) | 0.23 (0.17, 0.29) | 0.23 (0.17, 0.30) | 0.25 (0.12, 0.38) | 0.58 (0.45, 0.70) | 0.47 (0.32, 0.61) | 0.46 (0.23, 0.69) | Synergistic | – | – | – | – | – | – | – | – | – | Overall Result (HIV-1 LAI [1]; listed as efavirenz): strong synergistic effects
CC(C)(C)NC(=O)[C@@H]1C[C@@H]2CCCC[C@@H]2CN1C[C@@H](O)[C@H](Cc1ccccc1)NC(=O)[C@H](CC(N)=O)NC(=O)c1ccc2ccccc2n1 [Saquinavir, saquinavir] | – | – | – | – | – | – | – | – | – | – | – | 9 | 0.97 (0.88, 1.07) | 0.92 (0.76, 1.07) | 0.87 (0.65, 1.09) | 0.22 (0.20, 0.24) | 0.26 (0.22, 0.29) | 0.29 (0.24, 0.35) | 1.07 (0.95, 1.20) | 0.92 (0.74, 1.10) | Combination Indices at % HIV Inhibition (Confidence Interval) 90% (HIV-1 LAI [2]; [5]): 0.80 (0.45, 1.14); Overall Result (HIV-1 LAI [2]): Additive-; Overall Result (HIV-1 LAI [2]; listed as saquinavir): additive to synergistic
Cc1ccnc2c1NC(=O)c1cccnc1N2C1CC1 [Nevirapine, nevirapine] | 63 | 0.87 (0.79, 0.94) | 0.80 (0.69, 0.90) | 0.74 (0.58, 0.89) | 0.85 (0.74, 0.96) | 0.68 (0.58, 0.79) | 0.55 (0.43, 0.66) | 0.71 (0.62, 0.81) | 0.63 (0.52, 0.73) | 0.56 (0.42, 0.70) | Synergistic | – | – | – | – | – | – | – | – | – | Overall Result (HIV-1 LAI [1]; listed as nevirapine): strong synergistic effects
Cc1c(O)cccc1C(=O)N[C@@H](CSc1ccccc1)[C@H](O)CN1C[C@H]2CCCC[C@H]2C[C@H]1C(=O)NC(C)(C)C [Nelfinavir, nelfinavir] | – | – | – | – | – | – | – | – | – | – | – | 22 | 0.66 (0.60, 0.73) | 0.78 (0.67, 0.88) | 0.91 (0.71, 1.10) | 0.29 (0.31, 0.46) | 0.62 (0.45, 0.79) | 0.99 (0.57, 1.41) | 0.77 (0.69, 0.86) | 0.69 (0.62, 0.77) | Combination Indices at % HIV Inhibition (Confidence Interval) 90% (HIV-1 LAI [2]; [5]): 0.62 (0.49, 0.75); Overall Result (HIV-1 LAI [2]): Moderate; Overall Result (HIV-1 LAI [2]; listed as nelfinavir): moderate synergy
